Measured values as given in publication PMC5007978, “A chemical with proven clinical safety rescues Down-syndrome-related phenotypes in through DYRK1A inhibition” (Disease Models & Mechanisms, 2016).

Columns and labels:
[1] = test system: calcineurin-NFAT signaling; experiment: Flag-NFATc1 localization by immunofluorescence in 293T cells; assay type: cell-based; settings: 10 μM, 293T cells with overexpressed DYRK1A, ionomycin 5 μM
From the text: Flag-NFATc1 remained predominantly in the cytosol when expressed in 293T cells (Mock, Fig. 5A). Upon the addition of the calcium ionophore ionomycin (IM), Flag-NFATc1 was translocated into the nucleus (Fig. 5A, IM) as a result of NFATc1 dephosphorylation by activated calcineurin. Overexpression of DYRK1A relocalized Flag-NFATc1 into the cytoplasm, even in the presence of ionomycin owing to the opposing action of DYRK1A on NFATc1 phosphorylation, which is consistent with its negative regulatory role in the calcineurin-NFAT pathway (Fig. 5A, DYRK1A+IM).
(§1) Fig. 5. […] Firefly luciferase activities were measured using One-Glo reagents. Luciferase activity in the sample with reporter plasmid alone was set to 1, and the relative luciferase activities were calculated. Means±s.d. were determined from two independent experiments.
293T cells were seeded into 8-well chambered coverslips (Ibidi) and transfected with a plasmid expressing Flag-NFATc1. […] Cells were fixed with 4% paraformaldehyde in PBS for 10 min at room temperature, followed by permeabilization with 0.1% Triton X-100, and then subjected to immunofluorescence staining with anti-Flag (1:500) antibody for 2 h. Cells were then washed with cold PBS three times for 3 min each, incubated with Alexa-Fluor-488-conjugated anti-rabbit IgG (1:800) (Invitrogen) at room temperature for 1 h and then examined under a fluorescence microscope.

[2] = test system: mnb-overexpressing Drosophila; experiment: Adult lethality with pan-neuronal mnb overexpression; assay type: in vivo, Drosophila melanogaster; settings: parent flies fed 100 nM, n=100 per group
From the text: (§2) The expression of human Tau in Drosophila retinal tissue (GMR>Tau) produced a small rough eye phenotype (GMR>Tau in Fig. 6A and B), as described previously ([Jackson et al., 2002]). […] Pan-neuronal mnb overexpression (elav::synGFP>mnb) caused severe neurogenic defects in both the central and peripheral nervous system during embryogenesis [elav::synGFP>mnb (DMSO) in Fig. 6C]. […] Moreover, the viability of adult flies with the neuronal overexpression of mnb was examined. Pan-neuronal overexpression of mnb caused high rates of mortality in adult flies (∼70%, Fig. 6D).
Fig. 6. CX-4945 rescues neurological and phenotypic defects in an mnb-overexpressing Drosophila model. (A) The eyes of adult flies overexpressing mnb and/or human Tau under the control of the eye-specific GMR-Gal4 driver, and of control flies bearing only GMR-Gal4. Overexpression of mnb aggravated the eye abnormality induced by Tau overexpression. […] White dashed lines outline the eye contour. (B) The retinal surface areas were measured on multiple samples (n>10) from each genotype, and average eye sizes were presented as normalized percentages of the DMSO-treated GMR-Gal4 control. (C) The brain cortex, primary neuronal cell clusters and axon bundle, as visualized with GFP (green) using UAS-Synaptobrevin-GFP driven by elav-Gal4 at the late embryonic stage 18. […]

[3] = set-up: method as in Senhwa Biosciences (2014); settings: phase I clinical trials as cancer therapeutic; ref Senhwa Biosciences (2014); cited from earlier work
[4] = test system: mnb-overexpressing Drosophila; experiment: Eye phenotype in flies overexpressing human Tau with or without mnb (GMR-Gal4); assay type: in vivo, Drosophila melanogaster; settings: feeding with 100 nM, GMR>Tau and GMR>mnb+Tau
From the text: as §2
Fig. 6. CX-4945 rescues neurological and phenotypic defects in an mnb-overexpressing Drosophila model. […] (B) The retinal surface areas were measured on multiple samples (n>10) from each genotype, and average eye sizes were presented as normalized percentages of the DMSO-treated GMR-Gal4 control. […]
Drosophila melanogaster were cultured at 25°C on standard cornmeal medium. […] For defining optimal concentration of chemical inhibitors, 50 embryos of each genotype were raised on drug-containing food (0, 1 nM, 10 nM, 100 nM, 1 µM, 10 µM and 25 µM in 0.05% DMSO) and allowed to develop to adulthood (viability assay and wing vein quantification assay). […] Fly eye sizes were measured on multiple samples (n>10) from each genotype using the National Institutes of Health ImageJ software. […]

[5] = test system: calcineurin-NFAT signaling; experiment: NFAT-RE promoter luciferase reporter assay (NRE-Luc) in 293T cells; assay type: cell-based; settings: IM and PMA (10 nM), 1, 3 and 10 μM
Experimental: as §1
Treatment with IM and phorbol 12-myristate 13-acetate (PMA) induced a dramatic increase in luciferase activity (∼20 fold) as a result of the nuclear translocation of NFATc1 and the subsequent transcriptional activation (Fig. 5B). In this situation, the overexpression of DYRK1A suppressed the stimulatory effect of IM and PMA by 75%, resulting in a 4.5-fold increase in luciferase activity compared with that of the control (Fig. 5B).
The firefly luciferase reporter assay was performed using a One-Glo Assay System (Promega) according to the manufacturer's instructions. The transcriptional activity of NFATc1 in 293T cells was measured with a reporter vector (pGL4.30 luc2P/NFAT-RE/Hygro) (Promega) that expresses the firefly luciferase gene under the control of an NFAT-RE promoter. 293T cells were transfected with the DYRK1A-expressing plasmid and reporter plasmid. On the next day, cells were treated with IM (2.5 μM) and phorbol-12-myristate-13-acetate (10 nM) along with the indicated amounts of inhibitors. Cells were further incubated for 8 h and then cell lysates were harvested to measure luciferase activity.

O=C(O)c1ccc2c(c1)nc(Nc1cccc(Cl)c1)c1ccncc12 [CX-4945]
nuclear translocation of Flag-NFATc1 [1]: effectively induced the nuclear translocation
reduction of mortality of the progeny [2]: more than 70%
clinical safety [3]: safety has been already proven
eye defects induced by overexpression of Tau alone or with mnb [4]: significantly mitigated
NFATc1-dependent transcriptional activation (NRE-Luc) suppressed by DYRK1A overexpression [5]: reversed the effect of DYRK1A overexpression in a dose-dependent manner
